The test concerns the target aryl hydrocarbon receptor (AhR) (Mus musculus (Mouse), UniProt P30561). Kind of test: AhR ligand screening: AhRE-luciferase reporter in transfected Hepa1 cells. The format is cell-based. Conditions: for Fold @ 1 nM: fold change of luciferase expression at 1 nM test compound relative to vehicle (0.1% DMSO); for Fold @ 100 nM: fold change of luciferase expression at 100 nM test compound relative to vehicle (0.1% DMSO); for Fold @ 10 uM: fold change of luciferase expression at 10 uM test compound relative to vehicle (0.1% DMSO); for Fold relative to benchmark @ 100 nM: luciferase expression at 100 nM test compound relative to 100 nM benchmark compound 11-cl-BBQ. An excerpt:
The AhR is a ligand-activated transcription factor that dimerizes with ARNT to regulate gene expression, and genes that are regulated by AhR ligands have AhR response elements (AhRE) in their promotor regions.
Briefly, Hepa1 cells were transfected with a reporter construct consisting of AhRE linked to luciferase. The addition of AhR ligands to the transfected cells induces luciferase production that is directly proportional to the amount of AhR activation. We used this reporter system to identify novel compounds with AhR-activating properties. Transfected Hepa1 cells were plated at a density of 1×10^4 cells/well in 100 μL of cell culture media in 96 well plates and grown overnight. […] Following incubation with the compounds, the media was removed, and cells were harvested with lysis buffer. The lysates were transferred to opaque 96 well plates, where they were assayed well-by-well for luciferase activity by injection of luciferase assay substrate with a 2 sec mixing time and 15 sec integration period on a Tropix TR717 microplate luminometer. Data were expressed as fold induction of luciferase relative to vehicle (0.1% DMSO) treated cells.
Background: In a reporter assay the amount or activity of a reporter protein is the signal.

aryl hydrocarbon receptor (AhR), sequence (P30561 10-805): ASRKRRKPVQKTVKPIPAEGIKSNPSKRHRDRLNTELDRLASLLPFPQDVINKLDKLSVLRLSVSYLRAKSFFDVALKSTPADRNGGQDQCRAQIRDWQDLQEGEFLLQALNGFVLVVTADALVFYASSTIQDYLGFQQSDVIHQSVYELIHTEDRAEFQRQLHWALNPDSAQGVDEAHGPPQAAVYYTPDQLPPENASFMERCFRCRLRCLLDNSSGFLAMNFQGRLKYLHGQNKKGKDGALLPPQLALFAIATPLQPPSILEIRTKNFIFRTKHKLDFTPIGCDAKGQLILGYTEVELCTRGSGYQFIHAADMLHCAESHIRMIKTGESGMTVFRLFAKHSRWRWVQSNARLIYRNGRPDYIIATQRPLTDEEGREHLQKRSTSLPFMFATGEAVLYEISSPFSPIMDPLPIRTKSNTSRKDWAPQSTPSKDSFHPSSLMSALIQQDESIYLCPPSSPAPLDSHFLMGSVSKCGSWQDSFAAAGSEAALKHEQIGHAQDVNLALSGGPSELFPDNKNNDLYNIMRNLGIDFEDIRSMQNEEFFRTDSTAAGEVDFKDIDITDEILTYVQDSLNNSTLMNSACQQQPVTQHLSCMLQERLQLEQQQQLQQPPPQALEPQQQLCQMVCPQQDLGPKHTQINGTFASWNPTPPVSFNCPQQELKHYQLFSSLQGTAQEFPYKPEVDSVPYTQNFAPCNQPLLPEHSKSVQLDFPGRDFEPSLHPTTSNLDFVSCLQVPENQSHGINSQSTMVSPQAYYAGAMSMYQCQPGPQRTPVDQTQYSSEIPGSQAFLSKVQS
aryl hydrocarbon receptor (AhR), sequence (P53762 whole entry partner): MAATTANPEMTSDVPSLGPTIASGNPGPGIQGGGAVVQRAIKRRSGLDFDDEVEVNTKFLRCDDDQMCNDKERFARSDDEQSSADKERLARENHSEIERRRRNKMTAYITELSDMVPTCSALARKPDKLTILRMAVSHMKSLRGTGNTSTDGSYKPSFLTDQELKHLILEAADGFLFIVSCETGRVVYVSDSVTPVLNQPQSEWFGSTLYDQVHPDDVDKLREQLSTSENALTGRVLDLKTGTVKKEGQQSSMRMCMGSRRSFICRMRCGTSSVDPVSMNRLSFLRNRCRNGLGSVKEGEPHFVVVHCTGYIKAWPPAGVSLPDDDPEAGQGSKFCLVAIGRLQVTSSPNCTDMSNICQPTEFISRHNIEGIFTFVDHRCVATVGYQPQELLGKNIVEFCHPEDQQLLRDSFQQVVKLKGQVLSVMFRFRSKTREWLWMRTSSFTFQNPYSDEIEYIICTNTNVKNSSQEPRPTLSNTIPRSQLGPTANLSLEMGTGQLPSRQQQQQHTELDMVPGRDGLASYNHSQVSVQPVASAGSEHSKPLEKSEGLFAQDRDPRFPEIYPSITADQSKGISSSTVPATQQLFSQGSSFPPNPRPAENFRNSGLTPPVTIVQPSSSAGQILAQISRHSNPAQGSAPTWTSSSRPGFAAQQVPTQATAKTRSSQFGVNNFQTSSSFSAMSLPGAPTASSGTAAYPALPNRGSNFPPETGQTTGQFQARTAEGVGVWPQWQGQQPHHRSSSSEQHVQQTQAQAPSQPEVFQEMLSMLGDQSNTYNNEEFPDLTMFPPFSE

`COc1ccc(-c2nc3cc(Cl)ccc3n2C(=O)c2ccc(F)c(F)c2)c2ccccc12` [Compound 645]: the “Fold @ 1 nM” value worked out at 1 fold, the “Fold @ 100 nM” value is reported as 1 fold, the “Fold @ 10 uM” value was determined as 15 fold and the “Fold relative to benchmark @ 100 nM” value came out at 0.11 fold.
Turning to `COc1ccc(C(=O)n2c(-c3cccc4ccccc34)nc3cc(Cl)ccc32)cc1OC` [Compound 682], the “Fold @ 1 nM” value is listed as 1 fold, the “Fold @ 100 nM” value worked out at 18 fold, the “Fold @ 10 uM” value is 32 fold and the “Fold relative to benchmark @ 100 nM” value was determined as 0.69 fold.
On the same counts, the results for `COc1ccc(C(=O)n2c(-c3cccc4ccccc34)nc3ccc(Cl)cc32)cc1OC` [Compound 683] are 1 fold, 26 fold, 34 fold and 1 fold.
On the same counts, the results for `O=C(c1ccc(F)c(F)c1)n1c(-c2ccc3ccccc3c2)nc2cc(Cl)ccc21` [Compound 684] are 1 fold, 2 fold, 56 fold and 0.08 fold.
On the same counts, the results for `CN(C)c1ccc(C(=O)n2c(-c3cccc4ccccc34)nc3cc(Cl)ccc32)cc1` [Compound 685] are 1 fold, 13 fold, 28 fold and 0.5 fold.
As for `O=C(c1ccc(SC(F)(F)F)cc1)n1c(-c2cccc3ccccc23)nc2cc(Cl)ccc21` [Compound 686], the “Fold @ 1 nM” value was found to be 1 fold, the “Fold @ 100 nM” value is 24 fold, the “Fold @ 10 uM” value is 31 fold and the “Fold relative to benchmark @ 100 nM” value is listed as 0.92 fold.
On the same counts, the results for `O=C(c1ccc(SC(F)(F)F)cc1)n1c(-c2cccc3ccccc23)nc2ccc(Cl)cc21` [Compound 687] are 1 fold, 28 fold, 32 fold and 1.08 fold.
On the same counts, the results for `N#Cc1ccc(C(=O)n2c(-c3cccc4ccccc34)nc3cc(Cl)ccc32)cc1` [Compound 688] are 2 fold, 28 fold, 44 fold and 1.08 fold.
For the molecule `N#Cc1ccc(C(=O)n2c(-c3cccc4ccccc34)nc3ccc(Cl)cc32)cc1` [Compound 689], the “Fold @ 1 nM” value is on record as 1 fold, the “Fold @ 100 nM” value was found to be 28 fold, the “Fold @ 10 uM” value came to 47 fold and the “Fold relative to benchmark @ 100 nM” value stood at 1.08 fold.
On the same counts, the results for `O=C(c1ccc(F)c(F)c1)n1c(-c2cccc3ccccc23)nc2ccc(Br)cc21` [Compound 690] are 2 fold, 22 fold, 30 fold and 0.85 fold.
As for `O=C(c1ccccc1)n1c(-c2cccc3ccccc23)nc2cc(Br)ccc21` [Compound 691], the “Fold @ 1 nM” value stood at 2 fold, the “Fold @ 100 nM” value was 26 fold, the “Fold @ 10 uM” value amounted to 34 fold and the “Fold relative to benchmark @ 100 nM” value was 1 fold.
Take `O=C(c1ccc(F)c(F)c1)n1c(-c2cccc3ccccc23)nc2cc(Cl)c(Cl)cc21` [Compound 692]: the “Fold @ 1 nM” value was found to be 3 fold, the “Fold @ 100 nM” value is listed as 24 fold, the “Fold @ 10 uM” value came to 85 fold and the “Fold relative to benchmark @ 100 nM” value is on record as 0.92 fold.
On the same counts, the results for `O=C(c1ccc(F)cc1F)n1c(-c2cccc3ccccc23)nc2cc(Cl)ccc21` [Compound 694] are 2 fold, 32 fold, 35 fold and 1.23 fold.
On the same counts, the results for `O=C(c1ccc(F)cc1F)n1c(-c2cccc3ccccc23)nc2cc(Cl)ccc21` [Compound 695] are 1 fold, 23 fold, 30 fold and 0.88 fold.
On the same counts, the results for `O=C(c1ccc(OC(F)(F)F)cc1)n1c(-c2cccc3ccccc23)nc2cc(Cl)ccc21` [Compound 696] are 1 fold, 22 fold, 51 fold and 0.85 fold.
As for `Cc1ccc(C(=O)n2c(-c3cccc4ccccc34)nc3cc(Cl)ccc32)cc1` [Compound 697], the “Fold @ 1 nM” value was 1 fold, the “Fold @ 100 nM” value came out at 23 fold, the “Fold @ 10 uM” value is reported as 22 fold and the “Fold relative to benchmark @ 100 nM” value is recorded as 0.88 fold.
On the same counts, the results for `Cc1ccc(C(=O)n2c(-c3cccc4ccccc34)nc3ccc(Cl)cc32)cc1` [Compound 698] are 1 fold, 26 fold, 30 fold and 1 fold.
As for `O=C(c1ccc(F)c(F)c1)n1c(-c2cccc3ccccc23)nc2cc(OC(F)(F)F)ccc21` [Compound 699], the “Fold @ 1 nM” value is 1 fold, the “Fold @ 100 nM” value turned out to be 22 fold, the “Fold @ 10 uM” value was 24 fold and the “Fold relative to benchmark @ 100 nM” value was determined as 0.85 fold.
On the same counts, the results for `O=C(c1ccc(F)c(F)c1)n1c(-c2cccc3ccccc23)nc2ccc(OC(F)(F)F)cc21` [Compound 700] are 1 fold, 16 fold, 22 fold and 0.62 fold.
On the same counts, the results for `Cc1ccc2c(c1)nc(-c1cccc3ccccc13)n2C(=O)c1ccccc1` [Compound 701] are 1 fold, 2 fold, 35 fold and 0.08 fold.
For `COc1ccc(C(=O)n2c(-c3cccc4ccccc34)nc3cc(C)ccc32)cc1` [Compound 702], the “Fold @ 1 nM” value is 1 fold, the “Fold @ 100 nM” value was 1 fold and the “Fold relative to benchmark @ 100 nM” value is given as 0.04 fold.
For `O=C(c1ccccc1)n1c(-c2cccc(C(F)(F)F)c2)nc2cc(Cl)ccc21` [Compound 763], the “Fold @ 1 nM” value amounted to 1 fold, the “Fold @ 100 nM” value is 2 fold, the “Fold @ 10 uM” value came out at 22 fold and the “Fold relative to benchmark @ 100 nM” value amounted to 0.08 fold.
On the same counts, the results for `COc1ccc(C(=O)n2c(-c3cccc(C(F)(F)F)c3)nc3cc(Cl)ccc32)cc1` [Compound 764] are 1 fold, 2 fold, 20 fold and 0.08 fold.
On the same counts, the results for `COc1ccc(C(=O)n2c(-c3cccc(C(F)(F)F)c3)nc3ccc(Cl)cc32)cc1` [Compound 765] are 1 fold, 2 fold, 14 fold and 0.08 fold.
Turning to `O=C(c1ccc(F)c(F)c1)n1c(-c2ccccc2-c2ccccc2)nc2cc(Cl)ccc21` [Compound 766], the “Fold @ 1 nM” value is reported as 1 fold, the “Fold @ 100 nM” value was 2 fold, the “Fold @ 10 uM” value is listed as 31 fold and the “Fold relative to benchmark @ 100 nM” value came out at 0.08 fold.
Turning to `O=C(c1ccc(F)c(F)c1)n1c(-c2ccnc3ccccc23)nc2cc(Cl)ccc21` [Compound 767], the “Fold @ 1 nM” value is 1 fold, the “Fold @ 100 nM” value stood at 2 fold, the “Fold @ 10 uM” value is on record as 23 fold and the “Fold relative to benchmark @ 100 nM” value amounted to 0.08 fold.
On the same counts, the results for `N#Cc1ccc2c(c1)nc(-c1cccc3ccccc13)n2C(=O)c1ccccc1` [Compound 770] are 1 fold, 2 fold, 2 fold and 0.08 fold.
Regarding `O=C(c1ccc(F)c(F)c1)n1c(-c2cccc(-c3ccccc3)c2)nc2cc(Cl)ccc21` [Compound 771], the “Fold @ 1 nM” value amounted to 1 fold, the “Fold @ 100 nM” value was found to be 1 fold, the “Fold @ 10 uM” value was 2 fold and the “Fold relative to benchmark @ 100 nM” value stood at 0.04 fold.
Regarding `O=C(c1ccc(F)c(F)c1)n1c(-c2cccc(-c3ccccc3)c2)nc2ccc(Cl)cc21` [Compound 772], the “Fold @ 1 nM” value was found to be 1 fold, the “Fold @ 100 nM” value was found to be 1 fold, the “Fold @ 10 uM” value is given as 1 fold and the “Fold relative to benchmark @ 100 nM” value came to 0.04 fold.
On to `O=C(C1CC1)n1c(-c2cccc3ccccc23)nc2cc(Cl)ccc21` [Compound 773], for which the “Fold @ 1 nM” value is 1 fold, the “Fold @ 100 nM” value was 25 fold, the “Fold @ 10 uM” value came out at 40 fold and the “Fold relative to benchmark @ 100 nM” value was 1 fold.
Consider `CCc1ccc(S(=O)(=O)n2c(-c3cccc4ccccc34)nc3cc(Cl)ccc32)cc1` [Compound 775], for which the “Fold @ 1 nM” value is given as 1 fold, the “Fold @ 100 nM” value was determined as 19 fold, the “Fold @ 10 uM” value was 25 fold and the “Fold relative to benchmark @ 100 nM” value stood at 0.76 fold.

The values are drawn from US12473262B2, “Aryl hydrocarbon receptor activators” (Oregon State University, priority 2019, dated 2025).
